We go through two molecules from paper PMC7269481, “ZN148 Is a Modular Synthetic Metallo-β-Lactamase Inhibitor That Reverses Carbapenem Resistance in Gram-Negative Pathogens In Vivo” (Antimicrobial Agents and Chemotherapy, 2020).

The test system of one experiment is HepG2 cells. Kind of experiment: In vitro toxicity, alamarBlue viability. The conditions noted are these: Homo sapiens, HepG2, 24 h. The experiment is classed as cell-based, human. As to the method: The human hepatoblastoma HepG2 cell line (HB-8065; ATCC, Manassas, VA) was cultured in DMEM-GlutaMAX (5.5 mM glucose; Thermo Fisher) supplemented with 10% fetal bovine serum (Sigma-Aldrich), streptomycin (100 μg/ml; Gibco/Thermo Fisher), and penicillin (100 U/ml; Gibco/Thermo Fisher) at 37°C in 5% CO2. For viability assays, cells were seeded in white 96-well Nunclon plates (Sigma-Aldrich) at a density of 20,000 cells/well and left overnight to adhere. ZN148 and TPA (Sigma-Aldrich, Darmstadt, Germany) dissolved in dimethyl sulfoxide (DMSO; (Sigma-Aldrich) were added to the white 96-well plates containing 20,000 HepG2 cells/well at concentrations ranging from 1 to 1 × 10^−3 mM (a DMSO concentration kept below 1%), followed by incubation for 24 h at 37°C in 5% CO2. After 24 h, alamarBlue cell viability reagent (Thermo Fisher, Carlsbad, CA) was added (10% final concentration), followed by incubation for 4 h at 37°C. The proportion of viable cells in each well was measured in a fluorescence plate reader (Clariostar; BMGlabtech, Germany) at excitation 550 nm/emission 603 nm ([56]). Data from eight replicates were fitted by nonlinear regression to determine IC50 values using Prism (GraphPad Software, Inc.).
On the technique in general: The colour change of resazurin is a common sign of viable cells or microbes.

A further experiment addresses T1, VIM-2 (Escherichia coli, UniProt Q5U7L7).
T1 construct: made in house
Briefly: Zinc content determination by ICP-MS, VIM-2. The conditions noted are these: ICP-MS after preincubation. The format is biochemical. As to the method:
Inductively coupled plasma mass spectrometry (ICP-MS) was used to investigate the chelating property of ZN148 by measuring the zinc concentration (Zn^66) after incubation of VIM-2 with or without ZN148 in zinc depleted 50 mM HEPES buffer (pH 7.5; Chelex HEPES buffer). The Chelex buffer was prepared by stirring 2 g of Chelex resin (Bio-Rad, Hercules, CA) in 100 ml of 50 mM HEPES buffer (pH 7.5). The resin was subsequently removed by sterile filtration (Merck Millipore, 0.22 μm). VIM-2 (10 g/liter) was diluted to 12.5 mg/liter and mixed with ZN148 at different final concentrations (0, 12.5, 125, and 1250 μM) in Chelex HEPES buffer. All solutions were allowed to incubate for 30 min on ice and subsequently concentrated by centrifugation (at 4,000 × g, 4°C for 25 min) to a volume of 250 μl using centrifugal molecular cutoff filters (Merck Millipore, 10,000 Da). […] Per inhibitor concentration, at least three biological replicates were performed and injected and measured in triplicates. For the MS analysis the kinetic energy discrimination mode with a helium flow rate of 5.7 ml/min, 20 sweeps per reading, and a dwell time of 100 ms/atomic mass unit (AMU) for Zn^66 and 50 ms/AMU for Rh^103 were applied. […] The zinc concentration within the samples was determined based on an external calibration curve (0, 290, 580, 1,160, and 2,320 μg/liter). […]

Experiment [1] deals with strains coproducing MBLs and class D carbapenemases. Briefly: Carbapenem potentiation, strains coproducing MBLs and class D carbapenemases. The experiment is classed as cell-based. The conditions noted are these: with a few exceptions; 50 μM ZN148. As to the method:
(§1) MICs of carbapenems alone and in combination with inhibitors were determined by broth microdilution according to the Clinical and Laboratory Standards Institute (CLSI) guidelines ([48]) using either premade plates (TREK Diagnostic Systems/Thermo Fisher Scientific, East Grinstead, United Kingdom) with meropenem or in-house-prepared plates with meropenem, imipenem, and doripenem. ZN148 and other inhibitors were tested at a fixed concentration of 50 μM. Cation-adjusted Mueller-Hinton medium (TREK Diagnostic Systems/Thermo Fisher Scientific; Becton Dickinson, Franklin Lakes, NJ) were used as growth medium. The plates were incubated for 20 h at 37°C. ZN148, ZN222, ZN223, ZN228, and TPA were initially tested in combination with meropenem using two indicator strains: NDM-1-producing K. pneumoniae ([49], [50]) and VIM-2-producing P. aeruginosa ([51]). […]

The test system of experiment [2] is E. coli co-producing MBLs and class A/D serine carbapenemases. Briefly: Carbapenem MIC, E. coli co-producing MBLs and class A/D serine carbapenemases. The experiment is classed as cell-based. Conditions: carbapenem alone or with 50µM ZN148. As to the method: MICs of carbapenems alone and in combination with inhibitors were determined by broth microdilution according to the Clinical and Laboratory Standards Institute (CLSI) guidelines ([48]) using either premade plates (TREK Diagnostic Systems/Thermo Fisher Scientific, East Grinstead, United Kingdom) with meropenem or in-house-prepared plates with meropenem, imipenem, and doripenem. ZN148 and other inhibitors were tested at a fixed concentration of 50 μM. Cation-adjusted Mueller-Hinton medium (TREK Diagnostic Systems/Thermo Fisher Scientific; Becton Dickinson, Franklin Lakes, NJ) were used as growth medium. The plates were incubated for 20 h at 37°C. ZN148, ZN222, ZN223, ZN228, and TPA were initially tested in combination with meropenem using two indicator strains: NDM-1-producing K. pneumoniae ([49], [50]) and VIM-2-producing P. aeruginosa ([51]). The activity of ZN148 were subsequently tested against two extended strain collections: (i) in combination with meropenem against MBL-producing Enterobacterales (n = 62), MBL-producing P. aeruginosa (n = 9) and MBL- and class D carbapenemase-coproducing Enterobacterales (n = 5) from the strain collection at the Norwegian National Advisory Unit on Detection of Antimicrobial Resistance and (ii) in combination with meropenem, imipenem, and doripenem against globally collected MBL-producing E. coli (n = 87), K. pneumoniae (n = 85), P. aeruginosa (n = 52), and A. baumannii (n = 6), MBL- and class A/D carbapenemase-coproducing E. coli (n = 11), K. pneumoniae (n = 15) and A. baumannii (n = 7) at IHMA Europe, Sàrl, Switzerland. E. coli ATCC 25922 and P. aeruginosa ATCC 27853 were used as quality control strains. The MBL inhibitors were also tested for intrinsic antibacterial activity against the strains.

Experiment [3] has as its system NDM-1-producing K. pneumoniae 50752501. Kind of experiment: Meropenem MIC of the in vivo strain. The format is cell-based. Conditions: Klebsiella pneumoniae; read-out: MEM MIC. As to the method: as §1

For the molecule `CN(C[C@H](O)[C@@H](O)[C@H](O)[C@H](O)CO)C(=O)c1ccc(CN(Cc2ccccn2)Cc2ccccn2)nc1` [ZN148], the IC50 – broadly, the concentration at which inhibition is half-maximal – in the experiment on HepG2 cells is greater than 100 µM. Besides, the “zinc removed from enzyme” value on VIM-2 is roughly 1.8 molar equivalents. Besides, the “potentiation of meropenem, doripenem, and imipenem” value in experiment [1] is “no potentiation”.
`C[C@@H](O)[C@H]1C(=O)N2C(C(=O)O)=C(S[C@@H]3CN[C@H](C(=O)N(C)C)C3)[C@H](C)[C@H]12` [meropenem]: the minimal inhibitory concentration (MIC) (usually the lowest concentration found to suppress growth) in experiment [2] (NDM-1 + GES-2 strain) was greater than 64 µg/mL; in experiment [2] (NDM-5 + OXA-48 strain) it was greater than 64 µg/mL; in experiment [2] (NDM-5 + OXA-232 strains, one value per strain) it was greater than 64 µg/mL; in experiment [3], 64 µg/mL.
